Laboratory results: US8969350B2, “Pharmaceutical product comprising a p38 kinase inhibitor and a second active ingredient” (Astrazeneca AB, priority 2008, dated 2015)
Counter-ions that a name gives are not always drawn. Like-named read-outs stand apart in the source and are kept apart here. Blank lines part the entries; values can stand above or below the compound they belong to.

Tests used:
guinea pig trachea [1] = test: Guinea-pig isolated tracheal ring, Protocol B: shift of methacholine concentration response curve (apparent pA2); settings: mean ± s.e. mean, n=4; for pA2 in the presence of Compound A: apparent pA2 vs methacholine in the presence of Compound A (4 nM); for pA2 value: apparent pA2 vs methacholine, compound alone, Schild plot slope of 1 assumed
Description: (§1) Guinea-pigs (300-600 g) were killed by cervical dislocation and the trachea removed. After clearing the adherent connective tissue, the trachea was cut into segments (2-3 cartilage rings in width) and suspended in 10 ml organ baths containing modified Krebs' solution (mM; NaCl, 90; NaHCO3, 45; KCl, 5; MgSO4.7H2O, 0.5; Na2HPO4.2H2O, 1; CaCl2, 2.25; glucose, 10; pH 7.4, gassed with 5% CO2, 95% O2 at 37° C.). The tracheal rings were attached to an isometric force transducer for the measurement of isometric tension. The tissues were washed and a force of 1 g was applied to each tissue.
Protocol A: The rings were pre-contracted with methacholine (1 μM) and a cumulative (0.3 nM-3 μM) isoprenaline concentration effect curve constructed. The rings were washed and either Compound A (4 nM) or vehicle was added. The rings were then contracted with a second concentration of methacholine (1 μM). […] Data were collected using the ADInstruments chart4 software, the maximum tension generated at each concentration of agonist was recorded and the response expressed as percentage relaxation (mean±s.e.mean). The data was fitted to a four parameter logistic and a potency value (pEC50) generated (expressed as mean±s.e.mean). Protocol B: A cumulative concentration effect curve to methacholine (3 nM-30 μM) was constructed and then the tissue was washed. […] A second extended cumulative concentration response curve to methacholine was constructed (3 nM-1 mM). Data were collected using the ADInstruments chart4 software, the maximum tension generated at each concentration of agonist was recorded and the results were expressed as percentage of the maximum response measured in the first curve.

[2] = tested on: LPS stimulated TNFα production from human PBMC; test: Inhibition of LPS-induced TNFα production in human peripheral blood mononuclear cells (FLISA); assay type: cell-based; settings: Compound A alone, n=17, read-out: pIC50 for inhibition of LPS-induced TNFα production from human PBMC (converted)
Description: After the pre-incubation period, the cells were then incubated with LPS (1 μg/mL) for 4 hr at 37° C. to induce TNFα production. The total assay volume was 200 μL. At the end of the incubation period, 25 μL of the culture supernatant was analysed to quantify the TNFα released using a Flourescence-linked immunosorbance assay (FLISA). Fluorescence levels were read on an FMAT plate reader. Inhibition curves were fitted using a 4-parameter logistic equation in a non-linear curve fitting routine and activity was expressed as pIC50.

[3] = Water uptake by gravimetric vapour sorption (GVS); assay type: physicochemical; settings: between RH of 0%-80%, as measured by GVS
Description: GVS profiles were measured using a Dynamic Vapour Sorption DVS-1 instrument. The solid sample ca. 1-5 mg was placed into a glass vessel and the weight of the sample was recorded during a dual cycle step method (40 to 90 to 0 to 90 to 0% relative humidity (RH), in steps of 10% RH).

guinea pig trachea [4] = test: Guinea-pig isolated tracheal ring, Protocol A: relaxation of methacholine pre-contracted rings; settings: mean ± s.e. mean, n=4; for EC50: Cavia porcellus
Description: as §1
Protocol A: The rings were pre-contracted with methacholine (1 μM) and a cumulative (0.3 nM-3 μM) isoprenaline concentration effect curve constructed. The rings were washed and either Compound A (4 nM) or vehicle was added. The rings were then contracted with a second concentration of methacholine (1 μM). Once the contraction had reached a plateau cumulative concentration response curves to Compound C (0.1 nM-1 μM), Compound E (1 nM-1 μM) or Compound H (0.1 nM-1 μM) were constructed. Data were collected using the ADInstruments chart4 software, the maximum tension generated at each concentration of agonist was recorded and the response expressed as percentage relaxation (mean±s.e.mean). The data was fitted to a four parameter logistic and a potency value (pEC50) generated (expressed as mean±s.e.mean). Protocol B: A cumulative concentration effect curve to methacholine (3 nM-30 μM) was constructed and then the tissue was washed. […] A second extended cumulative concentration response curve to methacholine was constructed (3 nM-1 mM). Data were collected using the ADInstruments chart4 software, the maximum tension generated at each concentration of agonist was recorded and the results were expressed as percentage of the maximum response measured in the first curve.

[5] = compound alone (vehicle), relaxation of rings contracted with methacholine 1 μM, read-out: pEC50 value (converted)

SMILES: C[C@@](C(=O)O[C@H]1C[N+]2(CCc3ccc(F)cc3)CCC1CC2)(c1ccccc1)N1CCCCC1 [Compound J, (R)-1-[2-(4-fluoro-phenyl)-ethyl]-3-((S)-2-phenyl-2-piperidin-1-yl-propionyloxy)-1-azonia-bicyclo[2.2.2]octane 4-methylbenzenesulfonate]
pA2 in the presence of Compound A (guinea pig trachea [1]; 4-methylbenzenesulfonate): 10.1±0.10
pA2 value (guinea pig trachea [1]; 4-methylbenzenesulfonate): 9.9±0.12

SMILES: O=C(O[C@H]1C[N+]2(CCCOc3ccccc3)CCC1CC2)C(O)(c1cccs1)c1cccs1 [Compound D, [(3R)-1-(3-phenoxypropyl)quinuclidin-1-ium-3-yl]2-hydroxy-2,2-bis(2-thienyl)acetate bromide, reference compound]
pA2 in the presence of Compound A (guinea pig trachea [1]): 10.5±0.07
pA2 value (guinea pig trachea [1]): 10.7±0.09

SMILES: CNCCOc1ccccc1C1(Nc2nccn(-c3cc(C(=O)NC4CC4)cc(F)c3C)c2=O)CC1 [Compound A, N-cyclopropyl-3-fluoro-4-methyl-5-[3-[[1-[2-[2-(methylamino)ethoxy]phenyl]cyclopropyl]amino]-2-oxo-pyrazin-1-yl]benzamide]
IC50 [2]: 7.94 nM

water uptake [3]: 0.4%
SMILES: CNCCOc1ccccc1C1(Nc2nccn(-c3cc(C(=O)NC4CC4)cc(F)c3C)c2=O)CC1 [preparation 1 crystalline form A, N-Cyclopropyl-3-fluoro-4-methyl-5-[3-[[1-[2-[2-(methylamino)ethoxy]phenyl]cyclopropyl]amino]-2-oxo-1(2H)-pyrazinyl]-benzamide Crystalline Form A]

EC50 (guinea pig trachea [4]; [5]): 10 nM
pEC50 value (guinea pig trachea [4]; compound alone (vehicle), relaxation of rings contracted with methacholine 1 μM, dihydrobromide): 8.0 ± 0.05
SMILES: CCN(CC)CCN(CCNCCc1ccc(O)c2[nH]c(=O)sc12)C(=O)CCOCCc1cccc2ccccc12 [Compound C, N-[2-(diethylamino)ethyl]-N-(2-{[2-(4-hydroxy-2-oxo-2,3-dihydro-1,3-benzothiazol-7-yl)ethyl]amino}ethyl)-3-[2-(1-naphthyl)ethoxy]propanamide dihydrobromide]

SMILES: O=C(C[N+]12CCC(CC1)[C@@H](OC(=O)C1(c3ccccc3)CCCCCC1)C2)Nc1ccccn1 [Compound K, ((R)-3-(1-phenyl-cycloheptanecarbonyloxy)-1-(pyridin-2-ylcarbamoylmethyl)-1-azonia-bicyclo[2.2.2]octane bromide]
pA2 in the presence of Compound A (guinea pig trachea [1]): 9.9±0.15
pA2 value (guinea pig trachea [1]): 9.9±0.10

EC50 (guinea pig trachea [4]; [5]): 15.8 nM
EC50 (guinea pig trachea [4]; in the presence of Compound A (4 nM), rings contracted with methacholine 1 μM, read-out: pEC50 in the presence of Compound A (converted)): 20 nM
SMILES: CCc1cc2c(cc1CC)CC(NC[C@H](O)c1ccc(O)c3[nH]c(=O)ccc13)C2 [Compound E, 5-[(1R)-2-[(5,6-diethylindan-2-yl)amino]-1-hydroxy-ethyl]-8-hydroxy-1H-quinolin-2-one maleate, reference compound]

EC50 (guinea pig trachea [4]; [5]): 0.631 nM
pEC50 in the presence of Compound A (guinea pig trachea [4]; in the presence of Compound A (4 nM), rings contracted with methacholine 1 μM): 9.2±0.10
SMILES: O=C(CCNCCc1cccc(F)c1)N(CCNCCc1ccc(O)c2[nH]c(=O)sc12)C1CCCCC1 [Compound H, N-Cyclohexyl-N^3-[2-(3-fluorophenyl)ethyl]-N-(2-{[2-(4-hydroxy-2-oxo-2,3-dihydro-1,3-benzothiazol-7-yl)ethyl]amino}ethyl)-β-alaninamide di-D-mandelate]

SMILES: C[N+]1(C)[C@@H]2C[C@@H](OC(=O)C(O)(c3cccs3)c3cccs3)C[C@H]1[C@@H]1O[C@@H]12 [Compound M, (1R,2R,4S,5S,7S)-7-{[hydroxy(dithiophen-2-yl)acetyl]oxy}-9,9-dimethy-3-oxa-9-azoniatricyclo[3.3.1.0~2,4~]nonane bromide, reference compound]
pA2 in the presence of Compound A (guinea pig trachea [1]): 12.0±0.08
